Results as given in the supplement of paper PMC10307832.

Experiments:
Assay in all cases: relative viability (nuclei count vs DMSO), 5 days (fraction); higher = more cells survive
ALW-II-49-7 + Navitoclax = compound: Cc1ccc(C(=O)Nc2cccc(C(F)(F)F)c2)cc1Nc1cncc(C(N)=O)c1 [ALW-II-49-7] + CC1(C)CCC(c2ccc(Cl)cc2)=C(CN2CCN(c3ccc(C(=O)NS(=O)(=O)c4ccc(N[C@H](CCN5CCOCC5)CSc5ccccc5)c(S(=O)(=O)C(F)(F)F)c4)cc3)CC2)C1 [Navitoclax] (partner 0.5 µM)
Procedure, shortened: (§1)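 A single step with final 0.05% Triton X-100, 1% formaldehyde and 1 ug/ml Hoechst fixed the cells and stained nuclei 5 days after treatment. Lung cancer cell lines in 1536-well plates had been treated by pin tool the day after seeding with one drug alone or a fixed anchor-drug dose plus five library-drug doses (not always all listed) in √10 steps, and nuclei were counted on 4× images. Relative viability is the ratio of nuclei in treated wells to nuclei in vehicle wells, taken as the median of duplicate plates.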

XMD13-2 + Luminespib = compound: C1CC1C(=O)NC2=NNC3=C2C=CC(=C3)C4=CC(=CC=C4)C(=O)NC5CC5 [XMD13-2] + CCNC(=O)c1noc(-c2cc(C(C)C)c(O)cc2O)c1-c1ccc(CN2CCOCC2)cc1 [Luminespib] (partner 0.01 µM)
Procedure, shortened: as §1

ALW-II-49-7 + Tozasertib = compound: Cc1ccc(C(=O)Nc2cccc(C(F)(F)F)c2)cc1Nc1cncc(C(N)=O)c1 [ALW-II-49-7] + Cc1cc(Nc2cc(N3CCN(C)CC3)nc(Sc3ccc(NC(=O)C4CC4)cc3)n2)n[nH]1 [Tozasertib] (partner 0.1 µM)
Procedure, shortened: as §1

XMD13-2 + Pictilisib = compound: C1CC1C(=O)NC2=NNC3=C2C=CC(=C3)C4=CC(=CC=C4)C(=O)NC5CC5 [XMD13-2] + CS(=O)(=O)N1CCN(Cc2cc3nc(-c4cccc5[nH]ncc45)nc(N4CCOCC4)c3s2)CC1 [Pictilisib] (partner 1 µM)
Procedure, shortened: as §1

Cell Line	relative viability (ALW-II-49-7 + Navitoclax; first compound 0.08 µM)	relative viability (ALW-II-49-7 + Navitoclax; first compound 0.253 µM)	relative viability (ALW-II-49-7 + Navitoclax; first compound 0.8 µM)	relative viability (ALW-II-49-7 + Navitoclax; first compound 2.53 µM)	relative viability (ALW-II-49-7 + Navitoclax; first compound 8 µM)	relative viability (XMD13-2 + Luminespib; first compound 0.05 µM)	relative viability (XMD13-2 + Luminespib; first compound 0.1581 µM)	relative viability (XMD13-2 + Luminespib; first compound 0.5 µM)	relative viability (XMD13-2 + Luminespib; first compound 1.581 µM)	relative viability (XMD13-2 + Luminespib; first compound 5 µM)	relative viability (ALW-II-49-7 + Tozasertib; first compound 0.08 µM)	relative viability (ALW-II-49-7 + Tozasertib; first compound 0.253 µM)	relative viability (ALW-II-49-7 + Tozasertib; first compound 0.8 µM)	relative viability (ALW-II-49-7 + Tozasertib; first compound 2.53 µM)	relative viability (ALW-II-49-7 + Tozasertib; first compound 8 µM)	relative viability (XMD13-2 + Pictilisib; first compound 0.05 µM)	relative viability (XMD13-2 + Pictilisib; first compound 0.1581 µM)	relative viability (XMD13-2 + Pictilisib; first compound 0.5 µM)	relative viability (XMD13-2 + Pictilisib; first compound 1.581 µM)	relative viability (XMD13-2 + Pictilisib; first compound 5 µM)
LU99A	0.899	0.838	0.926	0.895	0.779	0.262	0.295	0.254	0.178	0.267	0.273	0.29	0.252	0.269	0.249	0.298	0.334	0.32	0.284	0.254
LXF-289	0.945	0.932	0.99	1.05	0.99	0.717	0.618	0.72	0.76	0.723	0.187	0.194	0.168	0.184	0.182	0.941	0.728	0.806	0.714	0.642
NCI-H23	0.968	0.92	0.848	0.766	0.787	0.222	0.2	0.21	0.204	0.21	0.308	0.553	0.337	0.404	0.363	0.579	0.438	0.503	0.446	0.457
NCI-H322M	1.22	1.31	1.24	1.26	1.09	0.874	0.834	0.804	0.89	1.23	0.436	0.484	0.476	0.411	0.367	0.593	0.495	0.451	0.501	0.578
NCI-H441	0.591	0.61	0.673	0.572	0.745	0.314	0.382	0.375	0.432	0.315	0.709	0.512	0.751	0.54	0.478	0.445	0.505	0.539	0.37	0.411
NCI-H460	1.17	1.08	1.11	1.25	1.09	0.0335	0.0365	0.0372	0.0316	0.0324	0.354	0.597	0.421	0.273	0.0328	0.532	0.324	0.363	0.4	0.36
NCI-H520	1.04	1.23	–	1.03	1.01	0.258	0.221	0.226	0.234	0.236	0.504	0.463	0.482	0.31	0.328	0.318	0.299	0.313	0.275	0.251
NCI-H596	0.98	0.784	0.85	0.972	0.927	0.987	1	0.909	0.903	1.2	1.02	0.939	0.92	0.782	1.14	0.447	0.406	0.351	0.384	0.411
NCI-H647	1.03	1.3	–	0.479	0.716	0.183	0.289	0.183	0.229	0.147	0.37	0.409	0.204	0.181	0.177	0.534	0.491	0.393	0.296	0.277
NCI-H727	0.611	0.447	0.482	0.53	0.552	0.475	0.326	0.352	0.34	0.378	0.599	0.647	0.642	0.687	0.538	0.421	0.321	0.36	0.527	0.551
NCI-H838	1.12	1.42	1.17	1.14	1.17	0.398	0.308	0.407	0.235	0.347	0.245	0.274	0.264	0.259	0.265	0.423	0.512	0.497	0.447	0.466
NCI-H1355	0.93	0.988	0.981	0.715	0.802	0.723	0.726	0.732	0.725	0.759	0.523	0.519	0.445	0.404	0.434	0.45	0.406	0.415	0.496	0.366
NCI-H1395	1.28	1.16	1.01	0.307	1.22	0.669	0.668	0.809	0.66	0.83	0.746	0.825	0.736	0.779	0.631	0.724	0.646	0.623	0.574	0.528
NCI-H1437	1.11	1.17	–	1.07	1.06	1.16	1.14	1.1	1.04	1.19	0.35	0.387	0.383	0.41	0.391	0.522	0.454	0.601	0.509	0.382
NCI-H1650	1.05	1.06	1.32	1.34	1.21	0.187	0.21	0.209	0.19	0.21	0.364	0.437	0.374	0.313	0.293	0.687	0.452	0.644	0.542	0.541
NCI-H1651	1.09	0.969	1.13	0.921	1.06	0.969	0.916	0.714	0.773	0.886	0.608	0.852	0.543	0.566	0.377	0.819	0.477	0.661	0.64	0.548

Cell Line	relative viability (ALW-II-49-7 + Navitoclax; first compound 0.08 µM)	relative viability (ALW-II-49-7 + Navitoclax; first compound 0.253 µM)	relative viability (ALW-II-49-7 + Navitoclax; first compound 0.8 µM)	relative viability (ALW-II-49-7 + Navitoclax; first compound 2.53 µM)	relative viability (ALW-II-49-7 + Navitoclax; first compound 8 µM)	relative viability (XMD13-2 + Luminespib; first compound 0.05 µM)	relative viability (XMD13-2 + Luminespib; first compound 0.1581 µM)	relative viability (XMD13-2 + Luminespib; first compound 0.5 µM)	relative viability (XMD13-2 + Luminespib; first compound 1.581 µM)	relative viability (XMD13-2 + Luminespib; first compound 5 µM)	relative viability (ALW-II-49-7 + Tozasertib; first compound 0.08 µM)	relative viability (ALW-II-49-7 + Tozasertib; first compound 0.253 µM)	relative viability (ALW-II-49-7 + Tozasertib; first compound 0.8 µM)	relative viability (ALW-II-49-7 + Tozasertib; first compound 2.53 µM)	relative viability (ALW-II-49-7 + Tozasertib; first compound 8 µM)	relative viability (XMD13-2 + Pictilisib; first compound 0.05 µM)	relative viability (XMD13-2 + Pictilisib; first compound 0.1581 µM)	relative viability (XMD13-2 + Pictilisib; first compound 0.5 µM)	relative viability (XMD13-2 + Pictilisib; first compound 1.581 µM)	relative viability (XMD13-2 + Pictilisib; first compound 5 µM)
NCI-H1666	0.879	1.03	1.03	0.978	1	1	0.992	0.965	1.03	1.01	0.609	0.603	0.569	0.612	0.498	0.566	0.479	0.59	0.349	0.492
NCI-H1734	0.778	0.954	0.822	0.634	0.665	0.259	0.179	0.179	0.192	0.177	0.263	0.278	0.255	0.24	0.232	0.558	0.45	0.444	0.423	0.389
NCI-H1755	0.976	1.03	0.976	0.884	0.759	0.441	0.502	0.419	0.44	0.433	0.654	0.558	0.463	0.483	0.466	0.548	0.411	0.48	0.315	0.496
NCI-H1793	0.268	0.505	0.463	0.363	0.463	0.277	–	0.168	0.172	0.175	0.366	0.301	0.338	0.296	0.321	0.288	0.442	0.373	0.403	0.192
NCI-H1915	0.771	0.823	0.733	0.764	0.705	0.867	0.859	0.833	0.717	0.635	0.398	0.457	0.42	0.341	0.277	0.981	0.884	1.07	0.9	0.919
NCI-H1944	1.06	1.14	0.991	1.11	1.07	0.797	0.756	0.758	0.899	0.697	0.234	0.249	0.251	0.246	0.254	0.352	0.345	0.357	0.373	0.333
NCI-H1975	1.06	1.05	0.993	0.919	0.998	0.169	0.253	0.172	0.197	0.191	0.743	1.05	0.667	0.508	0.243	0.319	0.3	0.333	0.322	0.325
NCI-H1993	0.85	0.927	0.904	0.785	1.08	1	0.663	0.833	0.801	1.09	0.524	0.605	0.567	0.629	0.632	0.846	0.783	0.781	0.937	0.845
NCI-H2009	1.1	1.16	1.12	0.904	0.983	1.01	1.01	1.01	1.02	1.19	0.771	0.804	0.707	0.653	0.562	0.838	0.945	0.904	0.822	0.566
NCI-H2023	0.925	1.1	1.03	1.01	1.02	0.884	0.703	0.954	0.712	0.913	0.257	0.464	0.276	0.259	0.189	0.318	0.244	0.219	0.24	0.225
NCI-H2085	1.13	1.15	1.14	1.18	1.08	0.447	0.494	0.491	0.497	0.423	0.753	0.895	0.787	0.743	0.568	0.828	0.445	0.444	0.444	0.481
NCI-H2087	1.12	0.937	0.838	0.907	0.949	0.164	0.159	0.217	0.198	0.152	0.222	0.266	0.271	0.162	0.16	0.95	0.846	1.05	0.888	0.772
NCI-H2126	0.86	0.934	0.855	0.877	0.862	0.899	0.977	0.957	0.832	0.92	0.856	0.885	0.826	0.197	0.786	0.508	0.448	0.503	0.518	0.502
NCI-H2170	0.701	0.568	0.569	0.655	0.592	0.506	0.515	0.776	0.55	0.908	0.724	0.817	0.73	0.618	0.767	0.349	0.33	0.338	0.275	0.247
NCI-H2228	1.4	0.809	0.628	0.838	0.84	0.144	0.218	0.166	0.129	0.178	0.261	0.263	0.277	0.171	0.22	0.44	0.452	0.566	0.351	0.402
